# Results published in patent publication EP0083683A1, “Method of preparing 1,4-bis(substituted-amino)-5,8-dihydroxyanthraquinones and pharmaceutical compositions containing them” (AMERICAN CYANAMID COMPANY, priority 1981, dated 1983).
# Assays:
# [1] = system: lymphocytic leukemia P388; assay: Lymphocytic leukemia P388 test; format: in vivo, DBA/2 mice
# Method: The animals used are DBA/2 mice all of one sex, weighing a minimum of 17 g. and all within a 3 g. weight range. There are 5 or 6 animals per test group. The tumor transplant is by intraperitoneal injection of 0.5 ml. of dilute ascitic fluid containing 10^6 cells of lymphocytic leukemia P388. The test compounds are administered intraperitoneally on days one, 5 and 9 (relative to tumor inoculation) at various doses. […] The median survival time and the ratio of survival time for treated (T)/control (C) animals are calculated. The positive control compound is 5-fluorouracil given as a 60 mg./kg. injection. The results of this test with representative compounds of the present invention appear in Table I. The criterion for efficacy is T/C x 100>125%.
# melanotic melanoma B16 = assay: Melanotic Melanoma B16 test; format: in vivo, BDF1 mice
# Method: The animals used are BDF1 mice, all of the same sex, weighing a minimum of 17 g. and all within a 3 g. weight range. There are normally 10 animals per test group. A one-gram portion of melanotic melanoma B16 tumor is homogenized in 10 ml. of cold balanced salt solution and a 0.5 ml. aliquot of the homogenate is implanted intraperitoneally into each of the test mice. The test compounds are administered intraperitoneally on days one through 9 (relative to tumor inoculation) at various doses. The animals are weighed and survivors are recorded on a regular basis for 60 days. The median survival time and the ratio of survival time for treated (T)/control (C) animals are calculated. The positive control compound is 5-fluorouracil given as a 20 mg./kg. injection. The criterion for efficacy is T/C x 100 >125%.
# [2] = 1st test, dose 0.78 mg./kg. intraperitoneally on days 1, 5 and 9
# [3] = 1st test, dose 1.56 mg./kg. intraperitoneally on days 1, 5 and 9
# [4] = 1st test, dose 3.12 mg./kg. intraperitoneally on days 1, 5 and 9
# [5] = 1st test, dose 6.25 mg./kg. intraperitoneally on days 1, 5 and 9
# [6] = 2nd test, dose 0.10 mg./kg. intraperitoneally on days 1, 5 and 9
# [7] = 2nd test, dose 0.19 mg./kg. intraperitoneally on days 1, 5 and 9
# [8] = 2nd test, dose 0.39 mg./kg. intraperitoneally on days 1, 5 and 9
# [9] = 2nd test, dose 0.78 mg./kg. intraperitoneally on days 1, 5 and 9
# [10] = 2nd test, dose 1.56 mg./kg. intraperitoneally on days 1, 5 and 9
# [11] = 2nd test, dose 3.12 mg./kg. intraperitoneally on days 1, 5 and 9
# [12] = 2nd test, dose 6.25 mg./kg. intraperitoneally on days 1, 5 and 9
# [13] = dose 0.09 mg./kg. intraperitoneally on days one through 9
# [14] = dose 0.19 mg./kg. intraperitoneally on days one through 9
# [15] = dose 0.37 mg./kg. intraperitoneally on days one through 9
# [16] = dose 0.75 mg./kg. intraperitoneally on days one through 9
# [17] = dose 1.5 mg./kg. intraperitoneally on days one through 9
# [18] = 1st test, positive control, dose 60 mg./kg.
# [19] = 2nd test, positive control, dose 60 mg./kg.
# [20] = positive control, dose 20.0 mg./kg.
compound,measurement,setting,value
"O=C1c2c(O)ccc(O)c2C(=O)c2c(NCCN3CCOC3)ccc(NCCN3CCOC3)c21 [l,4-Dihydroxy-5,8-bis[[2-(3-oxazolidinyl)ethyl]amino]-anthraquinone]",Median Survival Time,[1]; [2],23.0 days
same,T/C x 100 (Percent),[1]; [2],209%
same,Median Survival Time,[1]; [3],23.5 days
same,T/C x 100 (Percent),[1]; [3],214%
same,"""Cures"" = number of survivors/total at 60 days",[1]; [4],1/6
same,Median Survival Time,[1]; [4],29.5 days
same,T/C x 100 (Percent),[1]; [4],268%
same,"""Cures"" = number of survivors/total at 60 days",[1]; [5],2/6
same,Median Survival Time,[1]; [5],>30.0 days
same,T/C x 100 (Percent),[1]; [5],>273%
same,Median Survival Time,[1]; [6],19.5 days
same,T/C x 100 (Percent),[1]; [6],177%
same,Median Survival Time,[1]; [7],23.5 days
same,T/C x 100 (Percent),[1]; [7],214%
same,Median Survival Time,[1]; [8],23.5 days
same,T/C x 100 (Percent),[1]; [8],214%
same,Median Survival Time,[1]; [9],22.0 days
same,T/C x 100 (Percent),[1]; [9],200%
same,"""Cures"" = number of survivors/total at 60 days",[1]; [10],1/6
same,Median Survival Time,[1]; [10],30.0 days
same,T/C x 100 (Percent),[1]; [10],273%
same,Median Survival Time,[1]; [11],>30.0 days
same,T/C x 100 (Percent),[1]; [11],>273%
same,Median Survival Time,[1]; [12],14.0 days
same,T/C x 100 (Percent),[1]; [12],127%
same,Median Survival Time,melanotic melanoma B16; [13],29.0 days
same,T/C x 100 (Percent),melanotic melanoma B16; [13],153%
same,Median Survival Time,melanotic melanoma B16; [14],31.0 days
same,T/C x 100 (Percent),melanotic melanoma B16; [14],163%
same,Median Survival Time,melanotic melanoma B16; [15],49.5 days
same,T/C x 100 (Percent),melanotic melanoma B16; [15],260%
same,Median Survival Time,melanotic melanoma B16; [16],46.0 days
same,T/C x 100 (Percent),melanotic melanoma B16; [16],242%
same,Median Survival Time,melanotic melanoma B16; [17],55.5 days
same,T/C x 100 (Percent),melanotic melanoma B16; [17],292%
"O=c1[nH]cc(F)c(=O)[nH]1 [5-Fluorouracil, 5-fluorouracil, reference compound]",Median Survival Time,[1]; [18],21.0 days
same,T/C x 100 (Percent),[1]; [18],191%
same,Median Survival Time,[1]; [19],21.5 days
same,T/C x 100 (Percent),[1]; [19],195%
same,Median Survival Time,melanotic melanoma B16; [20],26.0 days
same,T/C x 100 (Percent),melanotic melanoma B16; [20],137%
